Data published in ChEMBL document CHEMBL4616678, “Design, Synthesis, and Physicochemical and Pharmacological Profiling of 7-Hydroxy-5-oxopyrazolo[4,3-b]pyridine-6-carboxamide Derivatives with Antiosteoarthritic Activity In Vivo” (J Med Chem, 2020).
Values after ≈ are worked out from the molar mass of the structure shown.

Legend:
Cannabinoid receptor 1 = Cannabinoid receptor 1 (Homo sapiens, UniProt P21554); assay: Displacement of [3H]-CP-55,940 from recombinant human CB1R expressed in HEK293 cell membranes
Sequence of Cannabinoid receptor 1 (P21554 whole entry): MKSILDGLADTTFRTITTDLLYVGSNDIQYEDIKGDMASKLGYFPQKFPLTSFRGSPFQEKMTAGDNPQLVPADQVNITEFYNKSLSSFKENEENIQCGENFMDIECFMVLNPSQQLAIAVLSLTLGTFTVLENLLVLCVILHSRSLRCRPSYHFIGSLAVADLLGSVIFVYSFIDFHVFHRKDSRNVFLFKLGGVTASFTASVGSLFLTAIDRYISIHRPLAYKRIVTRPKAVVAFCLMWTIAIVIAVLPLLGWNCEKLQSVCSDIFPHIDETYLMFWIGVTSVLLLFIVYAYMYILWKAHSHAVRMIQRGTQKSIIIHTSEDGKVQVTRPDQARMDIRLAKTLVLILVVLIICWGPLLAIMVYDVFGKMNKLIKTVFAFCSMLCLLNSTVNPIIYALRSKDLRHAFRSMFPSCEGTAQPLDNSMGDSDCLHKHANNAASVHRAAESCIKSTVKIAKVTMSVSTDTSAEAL

[1] = Kinetic solubility of the compound at pH 7.4 by HPLC-UV method; assay type: physicochemical; settings: buffer, read-out: Kinetic_solubility
Cannabinoid receptor 2 [2] = biological target: T1, Cannabinoid receptor 2 (Homo sapiens, UniProt P34972); assay: Displacement of [3H]-CP-55,940 from recombinant human CB2R expressed in HEK293 cell membranes
T1 sequence (P34972 whole entry): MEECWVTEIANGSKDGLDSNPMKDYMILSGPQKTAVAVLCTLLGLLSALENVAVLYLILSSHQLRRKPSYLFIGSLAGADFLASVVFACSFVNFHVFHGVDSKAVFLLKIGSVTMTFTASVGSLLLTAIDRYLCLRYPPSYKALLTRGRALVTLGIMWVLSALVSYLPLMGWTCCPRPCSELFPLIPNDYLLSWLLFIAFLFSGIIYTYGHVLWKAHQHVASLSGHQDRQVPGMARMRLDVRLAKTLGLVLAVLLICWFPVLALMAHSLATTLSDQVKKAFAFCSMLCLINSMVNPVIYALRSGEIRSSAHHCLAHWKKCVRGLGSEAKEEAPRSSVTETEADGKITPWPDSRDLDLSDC

[3] = Cytotoxicity against human NHAC-kn assessed as reduction in cell viability after 1 to 14 days by Neutral red dye-based UV-visible spectrophotometer analysis; assay type: functional
NIH3T3 = assay: Cytotoxicity against mouse NIH/3T3 assessed as reduction in cell viability after 1 to 14 days by Neutral red dye-based UV-visible spectrophotometer analysis; assay type: functional
[4] = Kinetic solubility of the compound at pH 1.0 by HPLC-UV method; assay type: physicochemical; settings: buffer, read-out: Kinetic_solubility
Cannabinoid receptor 2 [5] = biological target: T1, Cannabinoid receptor 2; assay: Inverse agonist activity at recombinant human CB2R expressed in CHOK1 cells assessed as increase in NKH477-stimulated intracellular cAMP levels after 30 mins by chemiluminescent based cAMP Hunter assay; assay type: functional, cell-based, CHO-K1
[6] = Lipophilicity, log P of the compound by UV-vis spectra analysis; assay type: physicochemical; settings: octanol/water
[7] = Ionization Constants, pKa of the compound by UV-vis spectra analysis; assay type: physicochemical
Cannabinoid receptor 2 [8] = biological target: T1, Cannabinoid receptor 2; assay: Agonist activity at recombinant human CB2R expressed in CHOK1 cells assessed as inhibition of NKH477-stimulated intracellular cAMP levels after 30 mins by chemiluminescent detection based cAMP Hunter assay; assay type: functional, cell-based, CHO-K1
Homo sapiens = organism: Homo sapiens; assay: Selectivity index, ratio of Ki for recombinant human CB1R expressed in HEK293 cell membranes to Ki for recombinant human CB2R expressed in HEK293 cell membranes; assay type: cell-based

SMILES | Ki (Cannabinoid receptor 1) | solubility kinetic [1] | Ki (Cannabinoid receptor 2 [2]) | IC50 [3] | IC50 (NIH3T3) | solubility kinetic [4] | EC50 (Cannabinoid receptor 2 [5]) | logP [6] | pKa [7] | EC50 (Cannabinoid receptor 2 [8]) | Ratio Ki (Homo sapiens)
Cn1cc2c(n1)c(O)c(C(=O)NC13CC4CC(CC(C4)C1)C3)c(=O)n2CCCCF | 532 nM | 0.8 µg/mL (≈ 1.92 µM) | 2.1 nM | 7500 nM | 12500 nM | 0.6 µg/mL (≈ 1.44 µM) | 270 nM | – | – | – | –
COc1ccc(C(=O)c2c(C)n(CCN3CCOCC3)c3cc(I)ccc23)cc1 | – | – | – | – | – | – | 3150 nM | – | – | – | –
CCCCCn1c(=O)c(C(=O)NC23CC4CC(CC(C4)C2)C3)c(O)c2nn(CCO)cc21 | 108 nM | 0.7 µg/mL (≈ 1.58 µM) | 4.8 nM | 2500 nM | 7500 nM | 0.38 µg/mL (≈ 0.859 µM) | 880 nM | – | – | – | –
Cn1cc2c(n1)c(O)c(C(=O)NC13CC4CC(CC(O)(C4)C1)C3)c(=O)n2CCCCF | > 1000 nM | 37.6 µg/mL (≈ 86.9 µM) | 6.2 nM | 12500 nM | 25000 nM | 39.9 µg/mL (≈ 92.3 µM) | 590 nM | 3.15 | 7.97 | – | –
CCCCCn1c(=O)c(C(=O)NC23CC4CC(CC(O)(C4)C2)C3)c(O)c2nn(CCO)cc21 | 492 nM | 15 µg/mL (≈ 32.7 µM) | 57.1 nM | 2500 nM | 7500 nM | 9.7 µg/mL (≈ 21.2 µM) | – | – | – | – | –
CN1N=CC2C1C(O)=C(C(=O)NC13CC4CC(CC(O)(C4)C1)C3)C(=O)N2CCCCF (centres undefined) | 161 nM | 15.1 µg/mL (≈ 34.8 µM) | 18.9 nM | 7500 nM | 25000 nM | 9.1 µg/mL (≈ 20.9 µM) | – | – | – | 71.8 nM | –
CCCC(C)(C)c1ccc2c(c1)OC(C)(C)[C@@H]1CC=C(C)C[C@@H]21 | – | – | – | – | – | – | – | – | – | 391 nM | –
CCCCn1c(=O)c(C(=O)NC23CC4CC(CC(O)(C4)C2)C3)c(O)c2nn(C)cc21 | > 1000 nM | 20.9 µg/mL (≈ 50.4 µM) | 10.6 nM | 2500 nM | 7500 nM | 15 µg/mL (≈ 36.2 µM) | – | 4.08 | 7.9 | – | –
CCCn1c(=O)c(C(=O)NC23CC4CC(CC(C4)C2)C3)c(O)c2nn(CCOC(C)=O)cc21 | > 1000 nM | 1.1 µg/mL (≈ 2.41 µM) | 186 nM | – | – | – | – | – | – | – | 5
CCCCn1c(=O)c(C(=O)NC23CC4CC(CC(C4)C2)C3)c(O)c2nn(C)cc21 | 231 nM | 1.9 µg/mL (≈ 4.77 µM) | 2.5 nM | 7500 nM | 12500 nM | 0.23 µg/mL (≈ 0.577 µM) | 370 nM | 5.3 | 8.6 | – | –
